Reference: patent US6824998B2, “Compounds and methods for detecting tripeptidyl protease I” (University of Iowa Research Foundation, priority 2003, dated 2004)

Biological target: T1, TPP-1 (Mus musculus, UniProt O89023)
T1 construct: from tissue; host or cells: frozen 10 µm sections of paraformaldehyde-fixed tissues (e.g. kidney) from C57BL/6J mice (Jackson Laboratory)
T1 sequence (O89023 195-562): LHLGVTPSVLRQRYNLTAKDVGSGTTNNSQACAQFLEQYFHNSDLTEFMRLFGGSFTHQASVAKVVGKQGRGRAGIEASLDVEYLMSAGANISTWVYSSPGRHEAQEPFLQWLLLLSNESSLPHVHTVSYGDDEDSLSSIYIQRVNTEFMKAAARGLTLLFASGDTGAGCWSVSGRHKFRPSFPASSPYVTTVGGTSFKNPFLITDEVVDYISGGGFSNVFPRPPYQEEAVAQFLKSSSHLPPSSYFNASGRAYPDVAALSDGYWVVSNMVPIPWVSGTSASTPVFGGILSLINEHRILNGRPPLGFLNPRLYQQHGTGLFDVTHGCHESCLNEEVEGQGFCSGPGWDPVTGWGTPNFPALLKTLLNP
Experiment: TPP-1 histochemical staining of frozen sections of murine tissues
Format: biochemical
Details: for Hydrolysis by endogenous TPP-1 in murine tissues / Specificity of TPP-1 detection / background activity: frozen sections of murine tissues; for Effectiveness of p-NBA and p-AA versus benzaldehyde with regard to precipitate density and color: aldehyde comparison
Protocol: C57BL/6J mice (6 to 8 weeks old) were purchased from the Jackson Laboratory (Bar Harbor, Me.). The mice were sacrificed with an overdose of anesthetic and then transcardially perfused with 0.9% (w/v) saline solution, followed by 2% paraformaldehyde in 0.2 M phosphate buffer. The tissues were removed and post-fixed for 2 hours. After fixation, the tissues were cryoprotected by immersion in 25% sucrose and frozen in OCT compound (Sakura Finetek U.S.A., Inc, Torrance, Calif.). Sections (10 μm) were cut with a cryostat and mounted onto gelatin-coated slides.
Sections were embedded in 0.5% celloidin, followed by incubation in substrate solutions. The sections were incubated in substrate solutions containing 1 mM of the compound, 1 mg/mL of benzaldehyde (BA) or p-anisaldehyde (p-AA) or p-nitrobenzaldehyde (p-NBA) in 0.1 M acetate buffer (pH 4.5) at 37° C. for 4 hours. Slides were rinsed and cover-slipped before viewing on a Leica DM RBE microscope equipped with a Spot-RT Digital Camera and associated software. For all experiments, tissue staining was repeated on a minimum of 5 sections/animal per compound. A minimum of three individual animals was tested to confirm consistency of the results.
Five different compounds, compounds 10, 16, 20, 27, and 31, were tested histochemically on frozen sections of murine tissues. The substrates were systematically compared for sensitivity to TPP-1 activity using conditions to control the rate of crystalline formation and diffusion of product.

Structure (SMILES)	Hydrolysis by endogenous TPP-1 in murine tissues	Autofluorescence of the final reaction product of TPP-1 histochemical staining (Benzaldehyde)	Color of the final reaction product of TPP-1 histochemical staining (Benzaldehyde)	Effectiveness of p-NBA and p-AA versus benzaldehyde with regard to precipitate density and color	Specificity of TPP-1 detection / background activity	Autofluorescence of the final reaction product of TPP-1 histochemical staining (p-Anisaldehyde)	Color of the final reaction product of TPP-1 histochemical staining (p-Anisaldehyde)	Autofluorescence of the final reaction product of TPP-1 histochemical staining (p-Nitrobenzaldehyde)	Color of the final reaction product of TPP-1 histochemical staining (p-Nitrobenzaldehyde)	Sensitivity for detecting TPP-1 activity (combination with p-AA, purple precipitates in areas of high endogenous enzyme activity (e.g., kidney))	Effectiveness as histochemical reagent for detecting TPP-1 (particularly when combined with p-anisaldehyde)
C[C@H](N)C(=O)N[C@@H](C)C(=O)N[C@H](Cc1ccccc1)C(=O)NNc1cccc2c1C(=O)c1ccccc1C2=O [Compound 31, L-Ala-L-Ala-D-Phe-1-anthraquinonylhydrazide]	no evidence of hydrolysis										
NCC(=O)N1CCC[C@H]1C(=O)N[C@@H](CO)C(=O)NNc1cccc2c1C(=O)c1ccccc1C2=O [Compound 20, Gly-L-Pro-L-Ser-1-anthraquinonylhydrazide]	readily hydrolyzed		Brown	more effective than benzaldehyde itself	low to no background activity		Dark Purple		Brown	most sensitive	most effective histochemical reagent

Second part, led by results:

Hydrolysis by endogenous TPP-1 in murine tissues	Autofluorescence of the final reaction product of TPP-1 histochemical staining (Benzaldehyde)	Color of the final reaction product of TPP-1 histochemical staining (Benzaldehyde)	Effectiveness of p-NBA and p-AA versus benzaldehyde with regard to precipitate density and color	Specificity of TPP-1 detection / background activity	Autofluorescence of the final reaction product of TPP-1 histochemical staining (p-Anisaldehyde)	Color of the final reaction product of TPP-1 histochemical staining (p-Anisaldehyde)	Autofluorescence of the final reaction product of TPP-1 histochemical staining (p-Nitrobenzaldehyde)	Color of the final reaction product of TPP-1 histochemical staining (p-Nitrobenzaldehyde)	Structure (SMILES)	Sensitivity for detecting TPP-1 activity (combination with p-AA, purple precipitates in areas of high endogenous enzyme activity (e.g., kidney))	Effectiveness as histochemical reagent for detecting TPP-1 (particularly when combined with p-anisaldehyde)
readily hydrolyzed	Autofluorescent	Yellow-green	more effective than benzaldehyde itself	low to no background activity	Autofluorescent	Yellow-green	Autofluorescent	Yellow-green	C[C@H](NC(=O)[C@@H]1CCCN1C(=O)CN)C(=O)n1nc2c3c(c(Cl)ccc31)C(=O)c1ccccc1-2 [Compound 10, Gly-L-Pro-L-Ala-5-chloro-1-anthra[1,9-cd]pyrozol-6(2H)-one]		
no evidence of hydrolysis									C[C@H](NC(=O)[C@@H]1CCCN1C(=O)CN)C(=O)NNc1cccc2c1C(=O)c1ccccc1C2=O [Compound 16, Gly-L-Pro-L-Ala-1-anthraquinonylhydrazide]		
readily hydrolyzed		Yellow-green	more effective than benzaldehyde itself	low to no background activity		Yellow-green		Yellow-green	C[C@H](N)C(=O)N[C@@H](C)C(=O)N[C@@H](Cc1ccccc1)C(=O)NNc1cccc2c1C(=O)c1ccccc1C2=O [Compound 27, L-Ala-L-Ala-L-Phe-1-anthraquinonylhydrazide]		
